Columns and labels:
Assay type in all cases: functional, cell-based
HCC1954 = test: Anti-proliferative activity against human HCC1954 cells assessed as cell growth inhibition incubated for 72 hrs by CCK-8 assay; details: HCC1954, 72 h
SK-OV-3 = test: Anti-proliferative activity against human SK-OV-3 cells assessed as cell growth inhibition incubated for 72 hrs by CCK-8 assay; details: SK-OV-3, 72 h
HeLa = test: Anti-proliferative activity against human HeLa cells assessed as cell growth inhibition incubated for 72 hrs by CCK-8 assay
DU-145 = test: Antiproliferative activity against human […] cells assessed as cell growth inhibition by SRB assay
PC-3 = test: Antiproliferative activity against human PC-3 cells assessed as cell growth inhibition by SRB assay

Row | SMILES | IC50 (HCC1954) | IC50 (SK-OV-3) | IC50 (HeLa) | IC50 (DU-145) | IC50 (PC-3)
1 | COc1ccc(-c2oc3cc(O)cc(O)c3c(=O)c2OCc2cn([C@@H]3O[C@H](COC(C)=O)[C@@H](OC(C)=O)[C@H](OC(C)=O)[C@H]3OC(C)=O)nn2)cc1O | 43400 nM | 30600 nM |  |  | 
2 | COc1ccc(-c2cc(=O)c3c(C)cc(OCc4cn([C@@H]5O[C@H](COC(C)=O)[C@@H](O[C@H]6O[C@H](COC(C)=O)[C@@H](OC(C)=O)[C@H](OC(C)=O)[C@H]6OC(C)=O)[C@H](OC(C)=O)[C@H]5OC(C)=O)nn4)cc3o2)cc1 |  |  | 14700 nM |  | 
3 | C[C@@]1([N+](=O)[O-])C(=O)c2cc(F)ccc2O[C@H]1CC(=O)NC12CC3CC(CC(C3)C1)C2 |  |  |  | 640 nM | 820 nM

The next lines start with the values.

Row | IC50 (HCC1954) | IC50 (SK-OV-3) | IC50 (HeLa) | IC50 (DU-145) | IC50 (PC-3) | SMILES
4 |  |  |  | 1650 nM | 1540 nM | C[C@]1([N+](=O)[O-])C(=O)c2cc(F)ccc2O[C@@H]1CC(=O)NC12CC3CC(CC(C3)C1)C2
5 |  |  |  | 1210 nM | 940 nM | CC1([N+](=O)[O-])C(=O)c2cc(F)ccc2OC1CC(=O)NC12CC3CC(CC(C3)C1)C2 (racemic)

Source: ChEMBL document CHEMBL5346866, “What about the progress in the synthesis of flavonoid from 2020?” (Eur J Med Chem, 2022)
